Source: US10315990B2, “Isothiocyanate compounds and isothiocyanate XPO1 protein inhibitor drugs thereof” (DRIVINGFORCE THERAPEUTICS Co., Ltd., priority 2015, dated 2019)
Like-named read-outs stand apart in the source and are kept apart here.

Assays:
TNF-α = assay: Serum TNF-α level of IBD animal model (ELISA); format: in vivo, SD rats; conditions: 80 mg/kg, three days after making the TNBS model
Description: (§1) Inflammatory bowel disease is an autoimmune disease. […] The therapeutic effect of the representative compound for the immune system disease or inflammation can be assessed by detecting change in levels of some important cytokines such as TNF-α and IL-6 at downstream of the signal path.

NCI-H1975 = assay: cells; format: cell-based; conditions: Homo sapiens
Description: (§2) NCI-H1975 and NCI-H1650 are two typical high metastasis type lung cancer cell lines. The therapeutic effect of the representative compound for the metastasis type lung cancers can be preliminarily assessed by detecting the inhibitory activity of the representative compound for the two cell lines. The lung cancer cell line was inoculated on 96-well cell culture plate in an amount of 6000 cells per well and cultured at 37° C. for 24 hours, and then treated solely with the compound added therein and cultured. Seventy-two hours later, MTT or CCK-8 method was used to detect the inhibitory activity of the compound for the two lung cancer cell lines.

NCI-H1650 = assay: cells; format: cell-based; conditions: Homo sapiens
Description: as §2

HMLE-Snail cell line = assay: Formation of HMLE-Snail cell line spheroids; format: cell-based; conditions: read-out: Colony (%): cell colony number of drug-treated group/cell colony number of control group × 100%
Description: HMLE-Snail cell line is one of most classic cell models for studying tumor cell metastasis and EMT path. HMLE-Snail cell line highly expresses Snail protein, and thus one of most remarkable features thereof is that it has spherical cellular morphology (spheroid). […] The HMLE-Snail cell line used in the present invention was donated by Dr. Robert Weinberg from America Massachusetts Whitehead Institute. HMLE-Snail cells were suspended in a liquid culture medium (in which B-27 and N-2 were added, purchased from America Invitrogen Corporation) containing DMEM/F12 in a ratio of 1:1, in an amount of 1.0×10^3 cells/ml, and cultured in an ultra low attachment culture plate so as to allow spheroids to be formed. Seven days later, spheroids were collected by centrifugation, and counted. […] Docetaxel is a common clinical chemotherapy drug.

Raji = assay: Inhibitory activity for high metastasis type lymphoma cell line (MTT or CCK-8); format: cell-based; conditions: Homo sapiens
Description: (§3) Jeko-1, Raji and U2932 are three typical high metastasis type lymphoma cell lines. The lymphoma cell line was inoculated on 96-well cell culture plate in an amount of 6000 cells per well and cultured at 37° C. for 24 hours, and then treated solely with the compound added therein and cultured. Seventy-two hours later, MTT or CCK-8 method was used to detect the inhibitory activity of the compound for the two high metastasis type lymphoma cell lines.

Jeko-1 = assay: as above; format: cell-based; conditions: Homo sapiens
Description: as §3

U2932 = assay: as above; format: cell-based; conditions: Homo sapiens
Description: as §3

XPO1 protein = target: T1, XPO1 protein (Homo sapiens, UniProt O14980); assay: Inhibitory activity for XPO1 protein (NES-GFP nuclear export, laser confocal microscope); format: cell-based; conditions: NES-GFP nuclear export, cells treated for 2 hours
T1 construct: Sixteen hours later, NES-GFP plasmid was transfected with liposome; endogenous in cells
Description: NES (nuclear export signal) is a nuclear export signal peptide recognized by XPO1 protein. XPO1 recognizes NES sequence peptide segment of biomacromolecule and exports the biomacromolecule out of nucleus. NES-GFP protein is obtained by co-expressing green fluorescence protein GFP and NES sequence peptide segment by using a eukaryotic expression plasmid. Inhibitory activity of the representative compound for XPO1 protein can be assessed by detecting influence of the compound on NES-GFP cell localization.
The cells were digested with trypsin, counted, and inoculated on 96-well plate in an amount of 1.5×10^4 cells per well. Sixteen hours later, NES-GFP plasmid was transfected with liposome.

[1] = system: SK-OV3 (high metastasis type ovarian cancer cell line); assay: Ovarian cancer intraperitoneal metastasis animal model; format: in vivo, nudemice (BALB/c-nu/nu); conditions: Mus musculus, SK-OV-3, ip; for response vs control in vivo at 80 mg/kg: 504 h, read-out: T/C (%); for mortality at 80 mg/kg: 720 h, six mice per group, read-out: Mortality (within 30 days) (converted)
Description: The ovarian cancer intraperitoneal metastasis animal model is one of most classic animal models for studying anti-ovarian cancer metastasis drug. Sixty 5 to 6-week-old female nudemice with similar weight (BALB/c-nu/nu) were chosen. SK-OV3 (high metastasis type ovarian cancer cell line) stably expressing green fluorescence protein was screened, and prepared into a cell suspension of 2×10^6 cells/100 μl with serum-free PRMI1640 medium. […] Three weeks later, the cancer was detected with a small animal in vivo imaging apparatus (Xenogen, School of Medicine, Shanghai Jiaotong University) and photos thereof were taken. […] In the table, T represents the drug-treated group, and C represents the blank control group. T/C is (V/V0 of compound-treated group)/(V/V0 of blank control group) in which V represents the cancer volume of mouse on the day the detection was performed, and V0 represents the cancer volume of mouse on the day the administration begun.

IL-6 = assay: Serum IL-6 level of IBD animal model (ELISA); format: in vivo, SD rats; conditions: 80 mg/kg, three days after making the TNBS model
Description: as §1

HCT116 = assay: Inhibitory activity for high metastasis type colon cancer cell line (MTT or CCK-8); format: cell-based; conditions: Homo sapiens
Description: as §3, with “SW620” for “Jeko-1, Raji”, “HCT116” for “U2932”, “two” for “three”, “colon cancer” for “lymphoma”

SW620 = assay: as above; format: cell-based; conditions: Homo sapiens
Description: as §3, with “SW620” for “Jeko-1, Raji”, “HCT116” for “U2932”, “two” for “three”, “colon cancer” for “lymphoma”

IBD animal model = assay: Macroscopic pathological changes of IBD animal model (enteroclysis with TNBS); format: in vivo, SD rats; conditions: 80 mg/kg intragastrically daily, TNBS rats, score 0-5, 10 animals
Description: Eight-week-old male SD rats (10 rats per group) were fasted for 24 hours and anaesthetized with diethyl ether. 50% ethanol and TNBS (2,4,6-trinitrobenzenesulfonic acid) were mixed to prepare a solution. In the IBD model group, a tube made of vinyl resin was inserted 5 cm from anus, and enteroclysis was performed with the TNBS solution in a dose of 100 mg/kg. The rats were hung upside down 30 seconds later after the enteroclysis to ensure no leakage of the TNBS solution. In the control group, the TNBS solution was replaced with normal saline with which enteroclysis was performed. Seven days later after the enteroclysis with the TNBS solution or normal saline, animals were sacrificed and dissected. […] Two weeks later after treated with the drugs, the animals were sacrificed and dissected, and large intestine thereof was taken out and fixed in 4% formalin solution for 30 minutes. The large intestine of the animals was cut lengthwise from the mesentery side to take photos for rectum portion and measure the weight of rectum. Based on the macroscopic observation and judgment score (Table 2-1), ulceration and bleeding states of rectum portion were scored according to the macroscopic observation scoring standard.

A2780 = assay: Inhibitory activity for high metastasis type ovarian cancer cell line (MTT or CCK-8); format: cell-based; conditions: Homo sapiens; A2780, 72 hours; read-out: IC50
Description: (§4) The two cell lines were inoculated on 96-well cell culture plate in an amount of 6000 cells per well and cultured at 37° C. for 24 hours, and then treated solely with the representative compound added therein and cultured. Seventy-two hours later, MTT or CCK-8 method was used to detect the inhibitory activity of the representative compound for the high metastasis type ovarian cancer cell lines.

HO-8910 = assay: as above; format: cell-based; conditions: HO-8910, 72 hours; read-out: IC50
Description: as §4

[2] = NCI-H1975, 72 hours, read-out: IC50
[3] = NCI-H1650, 72 hours, read-out: IC50
[4] = 10 μg/ml, treated for 24 hours, control = 100
[5] = Jeko-1, 72 hours, read-out: IC50
[6] = U2932, 72 hours, read-out: IC50
[7] = 80 mg/kg intraperitoneal injection once a day for 3 weeks
[8] = HCT-116, HCT116, 72 hours, read-out: IC50
[9] = SW-620, SW620, 72 hours, read-out: IC50

T1 sequence (O14980 whole entry, species assumed): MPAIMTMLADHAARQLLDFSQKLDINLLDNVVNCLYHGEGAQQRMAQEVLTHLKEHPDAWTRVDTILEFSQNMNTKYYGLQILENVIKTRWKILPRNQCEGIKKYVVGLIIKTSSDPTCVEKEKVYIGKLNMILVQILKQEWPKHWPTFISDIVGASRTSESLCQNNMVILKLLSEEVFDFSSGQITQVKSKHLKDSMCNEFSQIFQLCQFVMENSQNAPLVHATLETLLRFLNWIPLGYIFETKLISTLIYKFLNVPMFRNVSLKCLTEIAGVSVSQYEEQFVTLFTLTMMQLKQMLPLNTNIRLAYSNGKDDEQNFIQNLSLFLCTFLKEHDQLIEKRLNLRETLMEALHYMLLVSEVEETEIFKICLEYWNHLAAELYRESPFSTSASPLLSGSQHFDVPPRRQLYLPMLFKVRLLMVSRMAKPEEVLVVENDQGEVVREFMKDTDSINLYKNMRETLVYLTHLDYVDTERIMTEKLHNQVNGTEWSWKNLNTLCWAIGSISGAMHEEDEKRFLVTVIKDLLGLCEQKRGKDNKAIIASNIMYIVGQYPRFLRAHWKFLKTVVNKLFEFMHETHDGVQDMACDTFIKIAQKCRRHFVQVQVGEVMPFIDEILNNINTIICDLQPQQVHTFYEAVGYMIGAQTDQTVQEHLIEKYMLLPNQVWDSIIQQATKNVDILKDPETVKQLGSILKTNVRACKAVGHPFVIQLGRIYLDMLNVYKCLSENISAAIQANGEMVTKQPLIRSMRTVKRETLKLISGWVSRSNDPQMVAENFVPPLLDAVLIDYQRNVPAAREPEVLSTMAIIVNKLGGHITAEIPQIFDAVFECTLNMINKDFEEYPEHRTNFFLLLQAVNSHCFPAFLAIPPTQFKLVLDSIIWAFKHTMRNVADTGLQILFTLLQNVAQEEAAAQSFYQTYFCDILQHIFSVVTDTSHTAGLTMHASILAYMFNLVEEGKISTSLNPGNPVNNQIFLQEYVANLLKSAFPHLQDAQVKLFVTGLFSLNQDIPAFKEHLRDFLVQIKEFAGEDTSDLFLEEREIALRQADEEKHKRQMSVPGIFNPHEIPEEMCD

SMILES	Serum TNF-α level, Animal-1 (TNF-α)	Serum TNF-α level, Animal-2 (TNF-α)	Serum TNF-α level, Animal-3 (TNF-α)	IC50 (NCI-H1975; [2])	IC50 (NCI-H1650; [3])	activity at 10 µg/mL (HMLE-Snail cell line; [4])	IC50 (Raji; 72 hours, read-out: IC50)	IC50 (Jeko-1; [5])	IC50 (U2932; [6])	Activity (μM): inhibitory activity for XPO1 protein (full inhibitory concentration) (XPO1 protein)	response vs control in vivo at 80 mg/kg [1, 7]	mortality at 80 mg/kg [1]	Serum IL-6 level, Animal-1 (IL-6)	Serum IL-6 level, Animal-2 (IL-6)	Serum IL-6 level, Animal-3 (IL-6)	IC50 (HCT116; [8])	IC50 (SW620; [9])	Macroscopic pathological score (IBD animal model)	further results
CCC[S+]([O-])/C=C/CCN=C=S (stereo not shown) [Compound F-01, reference compound]	2.0 ng/mL	1.7 ng/mL	1.9 ng/mL	6900 nM	5400 nM	60 to 65%	3700 nM	3500 nM	5200 nM	10 to 15 µM	37%	0%	1.8 ng/mL	1.9 ng/mL	2.0 ng/mL	3500 nM	4100 nM		
[O-][S+](/C=C/CCN=C=S)C1CC1 (stereo not shown) [Compound F-03, reference compound]	1.7 ng/mL	1.6 ng/mL	1.5 ng/mL	5800 nM	4900 nM	55 to 60%	3200 nM	3100 nM	4900 nM	5 to 10 µM	35%	0%	1.7 ng/mL	1.8 ng/mL	1.8 ng/mL	2900 nM	3300 nM	2.5 ± 0.6	
CS/C=C/CCN=C=S [Compound F-06, reference compound]	2.3 ng/mL	2.0 ng/mL	2.2 ng/mL	17200 nM	16300 nM	70 to 75%	13500 nM	12000 nM	14700 nM	15 to 20 µM	80%	16.7%	2.8 ng/mL	2.5 ng/mL	2.3 ng/mL	15600 nM	17800 nM	3.5 ± 0.2	
[O-][S+](/C=C/CCN=C=S)c1cc(C(F)(F)F)cc(C(F)(F)F)c1 (stereo not shown) [Compound I-04]										0.250 µM		0%						1.0 ± 0.5	IC50 (NCI-H1975; NCI-H1975, 72 h): 90 nM; IC50 (NCI-H1650; NCI-H1650, 72 h): 80 nM; activity at 10 µg/mL (HMLE-Snail cell line; 24 h): 10 to 15%; IC50 (Raji; 72 h): 60 nM; IC50 (Jeko-1; JeKo-1, 72 h): 50 nM; IC50 (U2932; U2932, 72 h): 90 nM; response vs control in vivo at 80 mg/kg [1]: 19%; IC50 (HCT116; HCT-116, 72 h): 70 nM; IC50 (SW620; SW-620, 72 h): 90 nM
COc1cc([S+]([O-])/C=C/CCN=C=S)cc(OC)c1OC (stereo not shown) [Compound I-06]	0.9 ng/mL	0.6 ng/mL	0.5 ng/mL			10 to 15%	100 nM	70 nM	170 nM	0.200 µM			0.7 ng/mL	0.5 ng/mL	0.3 ng/mL	100 nM	150 nM	1.0 ± 0.1	
[O-][S+](/C=C/CCN=C=S)c1nnnn1-c1ccccc1 (stereo not shown) [Compound I-25]	1.0 ng/mL	0.5 ng/mL	0.8 ng/mL	250 nM	220 nM	10 to 15%	180 nM	150 nM	250 nM				0.6 ng/mL	0.7 ng/mL	0.5 ng/mL			1.5 ± 0.3	IC50 (A2780): 700 nM; IC50 (HO-8910): 300 nM
[O-][S+](/C=C/CCN=C=S)c1ccc(Oc2ccccc2)cc1 (stereo not shown) [Compound I-27]						25 to 30%				0.5 to 1 µM	25%	0%							IC50 (A2780): 1200 nM; IC50 (HO-8910): 800 nM
